ChEMBL document CHEMBL1139953, “Bis[(para-methoxy)benzyl] phosphonate prodrugs with improved stability and enhanced cell penetration” (Bioorg Med Chem Lett, 2007)

Tests used:
[1] = Stability assessed as half life in rat plasma; type: ADME, cell-free
Hepatocyte = experiment: Drug activation in rat hepatocytes by measuring intracellular NMPA levels at 100 uM after 1 hr; type: cell-based
[2] = Stability assessed as half life in Krebs bicarbonate buffer at 37degC; type: physicochemical
Nucleic Acid = experiment: Ratio of drug activation in NADPH-fortified human liver microsomes to NADPH-fortified rat liver microsomes assessed as rate of NMPA formation; set-up: species or system Microsome
Liver microsomes [3] = experiment: Drug activation in NADPH-fortified rat liver microsomes assessed as rate of NMPA formation; set-up: species or system Microsome
Liver microsomes [4] = experiment: Drug activation in NADPH-fortified human liver microsomes assessed as rate of NMPA formation; set-up: species or system Microsome
Liver microsomes [5] = experiment: Drug activation in human liver microsomes assessed as rate of NMPA formation; set-up: species or system Microsome
Liver = experiment: Drug activation in NADPH-fortified rat liver without microsomes assessed as rate of NMPA formation; set-up: species or system Microsome

Row | half-life [1] [h] | Activity (Hepatocyte) [nmol/g] | SMILES | also measured
1 | > 2 | 125 | COc1ccc(COP(=O)(Cc2cccc3ccccc23)OCc2ccc(OC)c(F)c2)cc1F | half-life [2]: > 2 h; Ratio (Nucleic Acid): 2; Activity (Liver microsomes [3]): 2.94 pmol/min/mg; Activity (Liver microsomes [4]): 5.23 pmol/min/mg
2 | > 2 | 130 | COc1ccc(COP(=O)(Cc2cccc3ccccc23)OCc2ccc(OC)c(Cl)c2)cc1Cl | half-life [2]: > 2 h; Ratio (Nucleic Acid): 2; Activity (Liver microsomes [3]): 1.58 pmol/min/mg; Activity (Liver microsomes [4]): 4.52 pmol/min/mg
3 | – | 26 | COc1cc(COP(=O)(Cc2cccc3ccccc23)OCc2cc(Br)c(OC)c(Br)c2)cc(OC)c1OC (stereo not given) | –
4 | > 2 | 73 | COc1ccc(COP(=O)(Cc2cccc3ccccc23)OCc2ccc(OC)c(C#N)c2)cc1C#N | –
5 | > 2 | 46 | COc1ccc(COP(=O)(Cc2cccc3ccccc23)OCc2ccc(OC)c(C(F)(F)F)c2)cc1C(F)(F)F | –
6 | > 2 | 76 | COc1ccc(COP(=O)(Cc2cccc3ccccc23)OCc2ccc(OC)c(Br)c2)cc1Br | Activity (Liver microsomes [5]): 0 pmol/min/mg; half-life [2]: > 2 h; Activity (Liver): 0 pmol/min/mg; Ratio (Nucleic Acid): 2; Activity (Liver microsomes [3]): 2.76 pmol/min/mg; Activity (Liver microsomes [4]): 4.85 pmol/min/mg
7 | > 2 | 54 | CCOc1ccc(COP(=O)(Cc2cccc3ccccc23)OCc2ccc(OCC)c(Cl)c2)cc1Cl | –
8 | – | 0 | CCCOc1ccc(COP(=O)(Cc2cccc3ccccc23)OCc2ccc(OCCC)c(Cl)c2)cc1Cl | –
9 | – | 0 | COc1ccc(COP(=O)(Cc2cccc3ccccc23)OCc2ccc(OC)c(C(C)=O)c2)cc1C(C)=O | –
10 | – | 0 | COc1c(Cl)cc(COP(=O)(Cc2cccc3ccccc23)OCc2cc(Cl)c(OC)c(Cl)c2)cc1Cl | –
11 | 0.15 | 91 | COc1ccc(COP(=O)(Cc2cccc3ccccc23)OCc2ccc(OC)cc2)cc1 | half-life [2]: 0.15 h
12 | > 2 | 60 | COc1ccc(COP(=O)(Cc2cccc3ccccc23)OCc2ccc(OC)c([N+](=O)[O-])c2)cc1[N+](=O)[O-] | –
13 | – | 0 | O=P(O)(O)Cc1cccc2ccccc12 | –
14 | – | 0 | COc1c(Br)cc(COP(=O)(Cc2cccc3ccccc23)OCc2cc(Br)c(OC)c(Br)c2)cc1Br | –
15 | 0.00833 | 85 | CC(C)C(=O)OCOP(=O)(Cc1cccc2ccccc12)OCOC(=O)C(C)C | –

Row | SMILES | half-life [1] [h] | Activity (Hepatocyte) [nmol/g] | also measured
16 | CCOP(=O)(Cc1cccc2ccccc12)OCC | – | 0 | –
